ChEMBL document CHEMBL1121583, “Synthesis and structure-activity studies of a series of 7 alpha-halogeno corticosteroids” (1980)

Tested on: Mus musculus
Test: Relative topical anti inflammatory activity was measured in mice by comparing with cumulative potency of betamethasone valerate by using croton oil ear assay
Format: functional

SMILES	Potency
CC(=O)OCC(=O)[C@@]1(O)[C@@H](C)CC2C3C(C(O)C[C@@]21C)[C@@]1(C)C=CC(=O)C=C1C[C@H]3I (some centres not stated)	54
CCC(=O)OCC(=O)[C@@]1(OC(=O)CC)[C@@H](C)CC2C3C(C(O)C[C@@]21C)[C@@]1(C)C=CC(=O)C=C1C[C@H]3Br (some centres not stated)	186
CC(=O)OCC(=O)[C@@]1(O)[C@H](C)CC2C3C(C(O)C[C@@]21C)[C@@]1(C)C=CC(=O)C=C1C[C@H]3Br (some centres not stated)	20
CCCCC(=O)O[C@]1(C(=O)CO)[C@@H](C)C[C@H]2[C@@H]3CCC4=CC(=O)C=C[C@]4(C)[C@@]3(F)[C@@H](O)C[C@@]21C [BETAMETHASONE VALERATE]	100
CC(=O)OCC(=O)[C@@]1(O)[C@@H](C)CC2C3CCC4=CC(=O)C=C[C@]4(C)C3C(O)C[C@@]21C (some centres not stated)	26
CC(=O)OCC(=O)[C@@]1(O)[C@H](C)CC2C3C=CC4=CC(=O)C=C[C@]4(C)C3C(O)C[C@@]21C (some centres not stated)	4
CCC(=O)OCC(=O)[C@@]1(OC(=O)CC)[C@H](C)CC2C3C(C(O)C[C@@]21C)[C@@]1(C)C=CC(=O)C=C1C[C@H]3I (some centres not stated)	36
CCC(=O)OCC(=O)[C@@]1(OC(=O)CC)[C@@H](C)CC2C3CCC4=CC(=O)C=C[C@]4(C)C3C(O)C[C@@]21C (some centres not stated)	76
CC(=O)OCC(=O)[C@@]1(O)[C@H](C)CC2C3CCC4=CC(=O)C=C[C@]4(C)C3C(O)C[C@@]21C (some centres not stated)	10
CC(=O)OCC(=O)[C@@]1(O)[C@@H](C)CC2C3C=CC4=CC(=O)C=C[C@]4(C)C3C(O)C[C@@]21C (some centres not stated)	29
CC(=O)OCC(=O)[C@@]1(O)[C@@H](C)CC2C3C(C(O)C[C@@]21C)[C@@]1(C)C=CC(=O)C=C1C[C@H]3F (some centres not stated)	16
CCC(=O)OCC(=O)[C@@]1(OC(=O)CC)[C@@H](C)CC2C3C=CC4=CC(=O)C=C[C@]4(C)C3C(O)C[C@@]21C (some centres not stated)	57
CCC(=O)OCC(=O)[C@@]1(OC(=O)CC)[C@H](C)CC2C3C(C(O)C[C@@]21C)[C@@]1(C)C=CC(=O)C=C1C[C@H]3F (some centres not stated)	78
CC(=O)OCC(=O)[C@@]1(O)[C@@H](C)CC2C3C(C(O)C[C@@]21C)[C@@]1(C)C=CC(=O)C=C1C[C@H]3Br (some centres not stated)	94
CCC(=O)OCC(=O)[C@@]1(OC(=O)CC)[C@@H](C)C[C@H]2[C@@H]3CCC4=CC(=O)C=C[C@]4(C)[C@@]3(F)[C@@H](O)C[C@@]21C [BETAMETHASONE DIPROPIONATE]	165
CC(=O)OCC(=O)[C@@]1(O)[C@@H](C)CC2C3C(C(O)C[C@@]21C)[C@@]1(C)C=CC(=O)C=C1C[C@H]3Cl (some centres not stated)	81
CCC(=O)OCC(=O)[C@@]1(OC(=O)CC)[C@H](C)CC2C3C(C(O)C[C@@]21C)[C@@]1(C)C=CC(=O)C=C1C[C@H]3Br (some centres not stated)	120
CCC(=O)OCC(=O)[C@@]1(OC(=O)CC)[C@@H](C)CC2C3C(C(O)C[C@@]21C)[C@@]1(C)C=CC(=O)C=C1C[C@H]3F (some centres not stated)	69
CCC(=O)OCC(=O)[C@@]1(OC(=O)CC)[C@H](C)CC2C3CCC4=CC(=O)C=C[C@]4(C)C3C(O)C[C@@]21C (some centres not stated)	74
CC(=O)OCC(=O)[C@@]1(O)[C@H](C)CC2C3C(C(O)C[C@@]21C)[C@@]1(C)C=CC(=O)C=C1C[C@H]3Cl (some centres not stated)	32
CCC(=O)OCC(=O)[C@@]1(OC(=O)CC)[C@@H](C)CC2C3C(C(O)C[C@@]21C)[C@@]1(C)C=CC(=O)C=C1C[C@H]3I (some centres not stated)	103
CCC(=O)OCC(=O)[C@@]1(OC(=O)CC)[C@H](C)CC2C3C=CC4=CC(=O)C=C[C@]4(C)C3C(O)C[C@@]21C (some centres not stated)	27
